SMILES strings stand for the structures.

Common to all, as to format: protein assay
For assay [1], the target named is T1, S-adenosylmethionine synthetase (MAT 1 and MAT 2) (Rattus norvegicus, UniProt P13444+P18298). Description: Inhibition constants of M-2 Forms of rat methionine adenosyltransferase using ATP as the variable substrate; Inhibition is competitive type.
In assay [2] the target is T1, S-adenosylmethionine synthetase (MAT 1 and MAT 2). Description: Inhibition constants of M-2 Forms of rat methionine adenosyltransferase using Methionine as the variable substrate; Inhibition is competitive type.
For assay [3] the target is unchanged. Description: Inhibition constants of MT Forms of rat Novikoff Ascitic Hepatomae using ATP as the variable substrate; Inhibition is competitive type.
For assay [4] the target is unchanged. Description: Inhibition constants of MT Forms of rat Novikoff Ascitic Hepatomae using Methionine as the variable substrate; Inhibition is non competitive inhibition.
For assay [5] the target is unchanged. The assay can be described thus: Inhibition constants of M-2 Forms of rat methionine adenosyltransferase using Methionine as the variable substrate; Inhibition is non competitive type.
For assay [6] the target is unchanged. The assay can be described thus: Inhibition constants of MT Forms of rat Novikoff Ascitic Hepatomae using Methionine as the variable substrate; Inhibition is non competitive type.

Take `NC(CCSC(CP(=O)(O)OP(=O)(O)NP(=O)(O)O)[C@H]1O[C@@H](n2cnc3c2NC=NC3N)[C@H](O)[C@@H]1O)C(=O)O` (stereo partly drawn): the inhibition constant Ki (usually a dissociation constant, usually derived from enzyme kinetics or from competition with a known ligand) in assay [1] came to 16 µM; in assay [2], 26 µM; in assay [3] it was 11 µM; in assay [4], 38 µM.

With `NC(CCS[C@@H](CNP(=O)(O)OP(=O)(O)OP(=O)(O)O)[C@H]1OC(n2cnc3c2NC=NC3N)[C@H](O)[C@@H]1O)C(=O)O` (stereo partly drawn), the inhibition constant (Ki) amounted to 0.36 µM in assay [1], 3 µM in assay [5], 0.27 µM in assay [3] and 2.3 µM in assay [6].

These data come from ChEMBL document CHEMBL1123834, “Isozyme-specific enzyme inhibitors. 14. 5'(R)-C-[(L-homocystein-S-yl)methyl]adenosine 5'-(beta,gamma-imidotriphosphate), a potent inhibitor of rat methionine adenosyltransferases” (J Med Chem, 1987).
